{"source": "patent US20190070170A1", "about": "“METHOD OF S[…]-1” (Macau University of Science and Technology, priority 2017, published 2019)", "key": {"[1]": {"tested_on": "PGE2", "assay": "PGE2 production in LPS-stimulated RAW264.7 cells (ELISA)", "format": "cell-based, mouse", "conditions": "SIN 160, 320 or 640 μM or 0.5 μM DEX 1 h, then LPS 100 ng/ml 18 h", "procedure": "RAW264.7 and A549 cell lines were obtained from American Type Culture Collection (ATCC, Manassas, Va., USA) and maintained in DMEM (RAW264.7) or 1640 (A549) medium containing 10% FBS (Gibco-BRL, Grand Island, N.Y., USA) and antibiotics at 37° C. in a humidified atmosphere containing 5% CO2. RAW264.7 cells were plated in 6-well plates at a density of 4×10^5 cells and incubated for 24 h, then the cells were pretreated with different concentrations of SIN for 1 h before stimulating with LPS (100 ng/ml). A549 cells were seeded in 6-well plates at a density of 1×10^5 cells and incubated for 24 h, followed by pretreatment with SIN. A549 cells were then stimulated by IL-1β (1 ng/ml).\nRAW264.7 cells and rat peritoneal macrophages were seeded in a 96-well plate at density of 1.4×10^4 and 1.5×10^5 cells, respectively. Various concentration of SIN was added to the cells for 1 hour before LPS stimulation. After stimulation with LPS for 18 h (RAW264.7 cells) or 24 h (rat peritoneal macrophages), MTT solution was added to each well and incubated for another 4 hours. 100 μl 10% SDS-HCl solution was added to each well for overnight to dissolve the formazan dye. The optical density was measured at 570 nm against a reference wavelength of 650 nm using a microplate UV/VIS spectrophotometer (Tecan, Mannedorf, Switzerland). […]"}, "[2]": {"tested_on": "p-cPLA2", "assay": "p-cPLA2 protein expression in LPS-activated rat peritoneal macrophages (western blotting)", "format": "cell-based", "conditions": "SIN or DEX 1 h, LPS 24 h", "procedure": "Sprague-Dawley (SD) rats from the University of Hong Kong were housed in cages with free access to food and water. Peritoneal macrophages of SD rats were isolated as described in Liu J. et al., Pharmacological research 2016, 111:303-315. Briefly, untreated rats were sacrificed and after laparotomy, about 50 ml cold sterile Hank's balanced salt solution (HBSS) was used to lavage the peritoneal cavity at twice, and then the peritoneal lavage fluid was collected and centrifuged at 1500 rpm for 10 min. The cell pellets was suspended at a density 1.5×10^6 cells/ml in pre-hearted DMEM medium with 10% heat-inactivated FBS, penicillin G (100 units/ml), streptomycin ([…]), and L-glutamine (2 mM), followed by seeding in 6-well plates at a density of 4.5×10^6 cells and incubation for 2 h. Then the medium were discarded to remove the non-adherent cells. The adherent cells were further washed for two times with pre-heated DMEM medium to remove floating cells. Next, cells were pre-treated with various concentration of SIN for 1 h, followed by stimulation with LPS (1 μg/ml).\nWhole-cell and nuclear proteins were obtained using RIPA lysis buffer (CST, Boston, Mass., USA) and Nuclear and Cytoplasmic Extraction Reagents kit from Thermo Scientific (Asheville, N.C., USA), respectively. […] The levels of protein expression were measured using Odyssey v3.0 software from Li-COR (Lincoln, Nebr., USA)."}, "[3]": {"tested_on": "CEBPβ (COX-2 promoter)", "assay": "ChIP assay: CEBPβ DNA binding to COX-2 promoter in LPS-stimulated rat peritoneal macrophages", "format": "cell-based", "conditions": "640 μM SIN 1 h, 1 μg/ml LPS 30 min", "procedure": "Rat peritoneal macrophages were pretreated with 640 μM SIN (1 h) and stimulated with 1 μg/ml LPS (30 min) before fixation at room temperature for 10 min with 1% formaldehyde. Fixation was terminated by adding glycine (to 0.125 M) with an additional incubation of 5 min, then the cells were washed twice with ice-cold PBS and harvested by scraping and centrifugation (1500 rpm for 10 min at 4° C.). Cell lysis was performed using ChIP kit from abcam (Cambridge, UK) according to the manufacturer's instructions. Briefly, cell pellets were resuspended in 1 ml Buffer B by pipetting up and down several times in a microcentrifuge tube and incubated at room temperature for 10 min. After centrifugation at 5000 rpm, the pellet was collected and resuspended in ice cold Buffer C and incubated on ice for 10 min, followed by centrifugation (5,000 rpm for 10 min at 4° C.). The pellet was mixed with 100 μl Buffer D containing protease inhibitors, incubated on ice for 10 min and sonicated for 30 cycles in a Bioruptor UCD-300 sonicator (power on high, 30 s on, 30 s off per cycle), yielding DNA fragments of 150-200 bps (the size of sonicated chromatin was checked through running 2% agarose gel). Beads were blocked overnight in PBS with 0.5% BSA and then added to the samples. […]"}}}
{"smiles": "COC1=C[C@@H]2[C@@H]3Cc4ccc(OC)c(O)c4[C@]2(CCN3C)CC1=O", "note": "[SIN, sinomenine]", "values": [{"measurement": "PGE2 production", "setting": "[1]", "result": "significant inhibition of PGE2 production in a dose dependent manner"}, {"measurement": "p-cPLA2 protein expression", "setting": "[2]", "result": "did not suppress"}, {"measurement": "DNA binding of CEBPβ to the COX-2 promoter", "setting": "[3]", "result": "inhibited"}]}
